Measurements taken from patent publication US11970498B2, “CDK2 inhibitors” (BLUEPRINT MEDICINES CORPORATION, priority 2021, dated 2024).
pIC50: −log10 of the molar value. Like-named read-outs stand apart in the source and are kept apart here.

Assays:
CDK2/Cyclin E = CDK2/Cyclin E (Homo sapiens, UniProt P24941); assay: CDK2/Cyclin E biochemical phosphorylation assay (Caliper mobility shift)
Method: (§1) Inhibitory effects of the compounds of the disclosure were measured in biochemical assays that measure the enzymatic phosphorylation activity of CDK enzyme in complex of Cyclin proteins phosphorylates 7.5 micromolar fluorescently labelled peptide substrate, 5-FAM-QSPKKG-CONH2, (FL-Peptide 18, Perkin Elmer, 760362) in the presence of adenosine-5′-triphosphate (ATP) and varying concentrations of the test compound in 100 mM 2-[4-(2-hydroxyethyl)piperazin-1-yl] ethanesulfonic acid (HEPES), pH 7.5, 10 mM MgCl2, 0.015% Brij-35, 1 mM dithiothreitol (DTT), 1.0% dimethylsulfoxide (DMSO). Assays were performed at 1.0 mM ATP or at ATP Km of the CDK enzymes in complex with Cyclin proteins. Reactions proceeded until between 10% to 20% total peptides were phosphorylated at room temperature (25° C.) and were terminated with 35 mM 2,2′,2″,2′″-(ethane-1,2-diyldinitrilo)tetraacetic acid (EDTA). Product was detected using the Caliper mobility shift detection method where the phosphorylated peptide (product) and substrate were electrophoretically separated and measured. Percent activity was plotted against log concentration of compound and points to generate an apparent IC50. The following CDK enzymes in complex with different cyclin proteins were used in these assays: • CDK1/Cyclin B1, GST-tag (BPS, 40454), 1.5 nM used in the assay • CDK2/Cyclin E (Eurofins, 14-475), 1.25 nM used in the assays
(§2) For inhibitory activity against CDK2/Cyclin E mutant, the following designations are used: ≤10 nM=A; >10-20 nM=B; >20-30 nM=C; >30-100 nM=D and >100=E. For inhibition CDK1/Cyclin B1, GST-tag: ≥500 nM=A; <100-500 nM=B; <100 nM=C.

CDK1/Cyclin B1, GST-tag = target: T1, CDK1/Cyclin B1, GST-tag (Homo sapiens, UniProt P06493); assay: CDK1/Cyclin B1 biochemical phosphorylation assay (Caliper mobility shift); conditions: apparent IC50; 1.0 mM ATP or ATP Km; 1.5 nM enzyme; 25° C.
T1 construct: GST
Method: as §1, §2

[1] = apparent IC50, 1.0 mM ATP or ATP Km, 1.25 nM enzyme, 25° C., read-out: CDK2/cyclin E1 IC50

T1 sequence (P06493 whole entry): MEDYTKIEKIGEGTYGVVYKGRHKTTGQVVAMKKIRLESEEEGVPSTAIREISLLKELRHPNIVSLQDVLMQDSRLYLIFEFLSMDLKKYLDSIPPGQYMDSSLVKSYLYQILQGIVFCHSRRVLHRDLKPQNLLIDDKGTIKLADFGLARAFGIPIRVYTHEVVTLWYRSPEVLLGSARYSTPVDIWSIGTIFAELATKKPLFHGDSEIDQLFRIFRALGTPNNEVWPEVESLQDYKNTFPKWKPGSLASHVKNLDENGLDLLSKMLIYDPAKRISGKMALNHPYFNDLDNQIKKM
T1 sequence (P14635 whole entry partner): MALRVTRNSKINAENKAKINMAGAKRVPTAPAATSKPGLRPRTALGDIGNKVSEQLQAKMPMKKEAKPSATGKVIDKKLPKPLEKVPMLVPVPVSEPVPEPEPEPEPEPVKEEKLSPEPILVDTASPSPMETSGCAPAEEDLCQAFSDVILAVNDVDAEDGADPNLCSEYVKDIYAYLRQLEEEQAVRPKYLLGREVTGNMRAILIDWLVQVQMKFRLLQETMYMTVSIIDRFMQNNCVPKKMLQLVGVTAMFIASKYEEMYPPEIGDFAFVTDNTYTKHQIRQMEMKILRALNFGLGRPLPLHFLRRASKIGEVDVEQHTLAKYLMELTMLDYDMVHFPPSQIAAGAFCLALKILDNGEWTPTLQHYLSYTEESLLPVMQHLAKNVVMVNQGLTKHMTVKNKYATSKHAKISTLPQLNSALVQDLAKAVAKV

pIC50 (CDK2/Cyclin E; [1])	pIC50 (CDK1/Cyclin B1, GST-tag)	pIC50 (CDK2/Cyclin E; additional compounds not disclosed herein, assays of Biological Example 1, read-out: inhibitory activity for CDK2/cyclin E1)	SMILES
≥ 8.00	6.30 to 7.00	–	C[C@@H](C1CC1)n1ncc2ncc(Nc3cc(OC(F)F)[nH]n3)nc21 [Example 51, (S)-1-(1-cyclopropylethyl)-N-(5-(difluoromethoxy)-1H-pyrazol-3-yl)-1H-pyrazolo[3,4-b]pyrazin-6-amine]
≥ 8.00	≤ 6.30	–	COc1cc(Nc2cnc3c(F)nn([C@@H](C)C4CCOCC4)c3n2)n[nH]1 [Example 123, (S)-3-fluoro-N-(5-methoxy-1H-pyrazol-3-yl)-1-(1-(tetrahydro-2H-pyran-4-yl)ethyl)-1H-pyrazolo[3,4-b]pyrazin-6-amine]
< 7.00	≤ 6.30	–	C[C@@H](CCO)n1ncc2ncc(Nc3cc(OC(F)F)[nH]n3)nc21 (single isomer, unassigned) [Example 206, (R)-3-(6-((5-(difluoromethoxy)-1H-pyrazol-3-yl)amino)-1H-pyrazolo[3,4-b]pyrazin-1-yl)butan-1-ol or (S)-3-(6-((5-(difluoromethoxy)-1H-pyrazol-3-yl)amino)-1H-pyrazolo[3,4-b]pyrazin-1-yl)butan-1-ol]
≥ 8.00	≤ 6.30	–	C[C@@H](O)c1nn([C@@H](C)C2CCOCC2)c2nc(Nc3cc(OC(F)F)[nH]n3)cnc12 (single isomer, unassigned) [Example 182, (S)-1-(6-((5-(difluoromethoxy)-1H-pyrazol-3-yl)amino)-1-((S)-1-(tetrahydro-2H-pyran-4-yl)ethyl)-1H-pyrazolo[3,4-b]pyrazin-3-yl)ethan-1-ol or (R)-1-(6-((5-(difluoromethoxy)-1H-pyrazol-3-yl)amino)-1-((S)-1-(tetrahydro-2H-pyran-4-yl)ethyl)-1H-pyrazolo[3,4-b]pyrazin-3-yl)ethan-1-ol]
≥ 8.00	6.30 to 7.00	–	FC(F)Oc1cc(Nc2cnc3cnn(CC4CCOCC4)c3n2)n[nH]1 [Example 2, N-(5-(difluoromethoxy)-1H-pyrazol-3-yl)-1-((tetrahydro-2H-pyran-4-yl)methyl)-1H-pyrazolo[3,4-b]pyrazin-6-amine]
7.52 to 7.70	≤ 6.30	–	FC(F)Oc1cc(Nc2cnc3cnn(CC4(F)CCOCC4)c3n2)n[nH]1 [Example 112, N-(5-(difluoromethoxy)-1H-pyrazol-3-yl)-1-((4-fluorotetrahydro-2H-pyran-4-yl)methyl)-1H-pyrazolo[3,4-b]pyrazin-6-amine]
7.00 to 7.52	≤ 6.30	–	FC[C@H](C1CCOCC1)n1ncc2ncc(Nc3cc(OC(F)F)[nH]n3)nc21 (single isomer, unassigned) [Example 183]
7.70 to 8.00	≤ 6.30	–	C[C@H](C1CCOCC1)n1ncc2ncc(Nc3cc(OC(F)F)[nH]n3)nc21 [Example 34, (R)-N-(5-(difluoromethoxy)-1H-pyrazol-3-yl)-1-(1-(tetrahydro-2H-pyran-4-yl)ethyl)-1H-pyrazolo[3,4-b]pyrazin-6-amine]

Continued, compound first:

SMILES	pIC50 (CDK2/Cyclin E; [1])	pIC50 (CDK1/Cyclin B1, GST-tag)	pIC50 (CDK2/Cyclin E; additional compounds not disclosed herein, assays of Biological Example 1, read-out: inhibitory activity for CDK2/cyclin E1)
C[C@@H](c1cccnc1)n1ncc2ncc(Nc3cc(OC(F)F)[nH]n3)nc21 [Example 1, (S)—N-(5-(difluoromethoxy)-1H-pyrazol-3-yl)-1-(1-(pyridin-3-yl)ethyl)-1H-pyrazolo[3,4-b]pyrazin-6-amine]	≥ 8.00	6.30 to 7.00	–
C[C@@H](c1cccc(F)c1)n1ncc2ncc(Nc3cc(OC(F)F)[nH]n3)nc21 [Example 43, (S)-N-(5-(difluoromethoxy)-1H-pyrazol-3-yl)-1-(1-(3-fluorophenyl)ethyl)-1H-pyrazolo[3,4-b]pyrazin-6-amine]	≥ 8.00	≤ 6.30	–
FC(F)Oc1cc(Nc2cnc3cnn(CC4CCCCC4)c3n2)n[nH]1 [Example 105, 1-(cyclohexylmethyl)-N-(5-(difluoromethoxy)-1H-pyrazol-3-yl)-1H-pyrazolo[3,4-b]pyrazin-6-amine]	≥ 8.00	6.30 to 7.00	–
O[C@H]1CC[C@@H](n2ncc3ncc(Nc4cc(OC(F)F)[nH]n4)nc32)CC1 [Example 57, (1s,4s)-4-(6-((5-(difluoromethoxy)-1Hpyrazol-3-yl)amino)-1Hpyrazolo[3,4-b]pyrazin-1-yl)cyclohexan-1-ol]	7.00 to 7.52	≤ 6.30	–
COc1cc(Nc2cnc3cnn(C[C@H]4C[C@@H](C)O[C@@H](C)C4)c3n2)n[nH]1 [Example 66, 1-(((2R,4r,6S)-2,6-dimethyltetrahydro-2H-pyran-4-yl)methyl)-N-(5-methoxy-1H-pyrazol-3-yl)-1H-pyrazolo[3,4-b]pyrazin-6-amine]	≥ 8.00	> 7.00	–
N#C[C@H]1C[C@H](Cn2ncc3ncc(Nc4cc(OC(F)F)[nH]n4)nc32)C1 (single isomer, unassigned) [Example 190, (1r,3r)-3-((6-((5-(difluoromethoxy)-1H-pyrazol-3-yl)amino)-1H-pyrazolo[3,4-b]pyrazin-1-yl)methyl)cyclobutane-1-carbonitrile or (1s,3s)-3-((6-((5-(difluoromethoxy)-1H-pyrazol-3-yl)amino)-1H-pyrazolo[3,4-b]pyrazin-1-yl)methyl)cyclobutane-1-carbonitrile]	< 7.00	≤ 6.30	–
CC(C)(C)n1ncc2ncc(Nc3cc(OC(F)F)[nH]n3)nc21 [Example 79, 1-(tert-butyl)-N-(5-(difluoromethoxy)-1H-pyrazol-3-yl)-1H-pyrazolo[3,4-b]pyrazin-6-amine]	7.52 to 7.70	≤ 6.30	–
O[C@H]1CC[C@@H](n2ncc3ncc(Nc4cc(OC(F)F)[nH]n4)nc32)C1 (single isomer, unassigned) [Example 208]	≥ 8.00	≤ 6.30	–
CCOc1cc(Nc2cnc3cnn(CC4CCOCC4)c3n2)n[nH]1 [Example 38, N-(5-ethoxy-1H-pyrazol-3-yl)-1-((tetrahydro-2H-pyran-4-yl)methyl)-1H-pyrazolo[3,4-b]pyrazin-6-amine]	≥ 8.00	6.30 to 7.00	–
FC(F)Oc1cc(Nc2cnc3cnn(CC4CCC(F)(F)CC4)c3n2)n[nH]1 [Example 108, 1-((4,4-difluorocyclohexyl)methyl)-N-(5-(difluoromethoxy)-1H-pyrazol-3-yl)-1H-pyrazolo[3,4-b]pyrazin-6-amine]	≥ 8.00	≤ 6.30	–
COc1cc(Nc2cnc3cnn(C[C@H]4CCOC4)c3n2)n[nH]1 [Example 70, (R)-N-(5-methoxy-1H-pyrazol-3-yl)-1-((tetrahydrofuran-3-yl)methyl)-1H-pyrazolo[3,4-b]pyrazin-6-amine]	≥ 8.00	6.30 to 7.00	–
FC(F)Oc1cc(Nc2cnc3cnn(CCc4ccncc4)c3n2)n[nH]1 [Example 130, N-(5-(difluoromethoxy)-1H-pyrazol-3-yl)-1-(2-(pyridin-4-yl)ethyl)-1H-pyrazolo[3,4-b]pyrazin-6-amine]	≥ 8.00	6.30 to 7.00	–
OC[C@@H](c1ccccc1)n1ncc2ncc(Nc3cc(OC(F)F)[nH]n3)nc21 [Example 203, (R)-2-(6-((5-(difluoromethoxy)-1H-pyrazol-3-yl)amino)-1H-pyrazolo[3,4-b]pyrazin-1-yl)-2-phenylethan-1-ol]	7.00 to 7.52	≤ 6.30	–
C[C@@H](c1ncccc1F)n1ncc2ncc(Nc3cc(OC(F)F)[nH]n3)nc21 [Example 50, (S)-N-(5-(difluoromethoxy)-1H-pyrazol-3-yl)-1-(1-(3-fluoropyridin-2-yl)ethyl)-1H-pyrazolo[3,4-b]pyrazin-6-amine]	≥ 8.00	≤ 6.30	–
COc1cc(Nc2cnc3cnn(Cc4cccnc4)c3n2)n[nH]1 [Example 135, N-(5-methoxy-1H-pyrazol-3-yl)-1-(pyridin-3-ylmethyl)-1H-pyrazolo[3,4-b]pyrazin-6-amine]	7.70 to 8.00	≤ 6.30	–
N#C[C@@H]1C[C@H]1Cn1ncc2ncc(Nc3cc(OC(F)F)[nH]n3)nc21 (single isomer, unassigned) [Example 26, (1R,2R)-2-((6-((5-(difluoromethoxy)-1H-pyrazol-3-yl)amino)-1H-pyrazolo[3,4-b]pyrazin-1-yl)methyl)cyclopropane-1-carbonitrile or (1S,2S)-2-((6-((5-(difluoromethoxy)-1H-pyrazol-3-yl)amino)-1H-pyrazolo[3,4-b]pyrazin-1-yl)methyl)cyclopropane-1-carbonitrile]	< 7.00	≤ 6.30	–
FC(F)Oc1cc(Nc2cnc3cnn([C@H](c4ccccc4)C4COC4)c3n2)n[nH]1 (single isomer, unassigned) [Example 161, (S)-N-(5-(difluoromethoxy)-1H-pyrazol-3-yl)-1-(oxetan-3-yl(phenyl)methyl)-1H-pyrazolo[3,4-b]pyrazin-6-amine or (R)-N-(5-(difluoromethoxy)-1H-pyrazol-3-yl)-1-(oxetan-3-yl(phenyl)methyl)-1H-pyrazolo[3,4-b]pyrazin-6-amine]	7.00 to 7.52	≤ 6.30	–
CC(c1cccn(C)c1=O)n1ncc2ncc(Nc3cc(OC(F)F)[nH]n3)nc21 (stereo not drawn)	–	–	< 5.00
